# From patent publication US9243025B2, “Compounds and pharmaceutical compositions for the treatment of viral infections” (Idenix Pharmaceuticals, LLC, priority 2011, dated 2016)
# Where two headings read alike, the source gives them in different places.
# Legend:
# Type in all cases: cell-based
# [1] = tested on: Huh-7 cells containing HCV Coni subgenomic replicon (GS4.1 cells); assay: HCV replicon assay; conditions: GS4.1 cells, 72 hours incubation, NS4A expression by ELISA, read-out: HCV Replicon EC50
# Protocol: (§1) Huh-7 cells containing HCV Coni subgenomic replicon (GS4.1 cells), (C. Seeger; Fox Chase University, Philadelphia, Pa., USA), are grown in Dulbecco's Modified Eagle Medium (DMEM) supplemented with 10% fetal bovine serum (FBS), 2 mM L-glutamine, 110 mg/L sodium pyruvate, 1× non-essential amino acids, 100 U/mL penicillin-streptomycin and 0.5 mg/mL G418 (Invitrogen). For dose-response testing, the cells are seeded in 96-well plates at 7.5×10^3 cells/well in a volume of 50 μL and incubated at 37° C./5% CO2. Three hours after plating, 50 μL of ten 2-fold serial dilutions of compounds (highest concentration, 75 μM) are added and cell cultures were incubated at 37° C./5% CO2 in the presence of 0.5% DMSO. Alternatively, compounds are tested at a single concentration of 15 μM. In all cases, Huh-7 cells lacking the HCV replicon served as negative control. The cells are incubated in the presence of compounds for 72 hours after which they were monitored for expression of the NS4A protein by enzyme-linked immunosorbent assay (ELISA). For this, the plates were then fixed for 1 min with 1:1 acetone:methanol, washed twice with phosphate-buffered saline (PBS), 0.1% Tween 20, blocked for 1 hour at room temperature with TNE buffer containing 10% FBS and then incubated for 2 h at 37° C. with the anti-NS4A mouse monoclonal antibody A-236 (ViroGen) diluted in the same buffer. After washing three times with PBS, 0.1% Tween 20, the cells are incubated 1 hour at 37° C. with anti-mouse immunoglobulin G-peroxidase conjugate in TNE, 10% FBS. After washing as described above, the reaction is developed with O-phenylenediamine (Zymed). The reaction is stopped after 30 minutes with […] and the absorbance is read at 492 nm using a Sunrise Tecan spectrophotometer. EC50 values are determined from the % inhibition versus concentration data using a sigmoidal non-linear regression analysis based on four parameters with Tecan Magellan software. When screening at a single concentration, the results are expressed as % inhibition at 15 μM. For cytotoxicity evaluation, GS4.1 cells are treated with compounds as described above and cellular viability was monitored using a Cell Titer 96 AQueous One Solution Cell Proliferation Assay (Promega). CC50 values are determined from the % cytotoxicity versus concentration data with Tecan Magellan software as described above.
# Compounds presented in the table below were assayed according to the replicon assay described above.
# [2] = tested on: GS4.1 cells; assay: Cytotoxicity evaluation in GS4.1 cells (Cell Titer 96 AQueous One Solution Cell Proliferation Assay); conditions: cellular viability, treated as in replicon assay, read-out: HCV Replicon CC50
# Protocol: as §1
# [3] = as above; conditions: human, cellular viability, treated as in replicon assay, read-out: HCV Replicon CC50
# Protocol: as §1
SMILES,EC50 [1] [nM],CC50 [2] [nM],"EC50 ([1]; Hepatitis C virus, Huh-7, 72 h) [nM]",CC50 at 72 h [3] [nM]
CCOC(=O)[C@@H](CC(C)C)NP(=O)(N[C@H](CC(C)C)C(=O)OCC)OC[C@H]1O[C@@H](n2cnc3c(OC)nc(N)nc32)C(C)(O)C1O (stereo partly drawn) [Compound 66],100 to 1000,≤ 75000,–,–
CCOC(=O)[C@H](Cc1ccccc1)NP(=O)(N[C@@H](Cc1ccccc1)C(=O)OCC)OC[C@H]1O[C@@H](n2cnc3c(N4CCOCC4)nc(N)nc32)C(C)(O)C1O (stereo partly drawn) [Compound 71],–,–,< 100,> 75000
CCOC(=O)[C@@H](NP(=O)(N[C@H](C(=O)OCC)C(C)C)OC[C@H]1O[C@@H](n2cnc3c(N4CCOCC4)nc(N)nc32)C(C)(O)C1O)C(C)C (stereo partly drawn) [Compound 72],–,–,100 to 1000,> 75000
COc1nc(N)nc2c1ncn2[C@@H]1O[C@H](COP(N)(=O)OCCSC(=O)C(C)(C)CO)C(O)C1(C)O (stereo partly drawn) [Compound 73],–,–,100 to 1000,> 75000
CCOC(=O)CCNP(=O)(OCCSC(=O)C(C)(C)CO)OC[C@H]1O[C@@H](n2cnc3c(OC)nc(N)nc32)C(C)(O)C1O (stereo partly drawn) [Compound 74],–,–,100 to 1000,> 75000
CC(C)NP(=O)(OCCSC(=O)C(C)(C)CO)OC[C@H]1O[C@@H](n2cnc3c(NC4CC4)nc(N)nc32)C(C)(O)C1O (stereo partly drawn) [Compound 75],–,–,100 to 1000,> 75000
CCOC(=O)CCNP(=O)(OCCSC(=O)C(C)(C)CO)OC[C@H]1O[C@@H](n2cnc3c(NC4CC4)nc(N)nc32)C(C)(O)C1O (stereo partly drawn) [Compound 76],–,–,100 to 1000,> 75000
CCOC(=O)[C@@H](NP(=O)(N[C@H](C(=O)OCC)C(C)C)OC[C@H]1O[C@@H](n2cnc3c(SC)nc(N)nc32)C(C)(O)C1O)C(C)C (stereo partly drawn) [Compound 77],–,–,100 to 1000,> 75000
CN(N)c1nc(N)nc2c1ncn2[C@@H]1O[C@H](COP(=O)(NCc2ccccc2)OCCSC(=O)C(C)(C)CO)C(O)C1(C)O (stereo partly drawn) [Compound 78],–,–,100 to 1000,> 75000
CC(C)NP(=O)(OCCSC(=O)C(C)(C)CO)OC[C@H]1O[C@@H](n2cnc3c(Cl)nc(N)nc32)C(C)(O)C1O (stereo partly drawn) [Compound 79],–,–,< 100,≤ 75000
CCOC(=O)[C@H](CC(C)C)NP(=O)(N[C@@H](CC(C)C)C(=O)OCC)OC[C@H]1O[C@@H](n2ccc(=O)[nH]c2=O)C(C)(O)C1O (stereo partly drawn) [Compound 80],–,–,1000 to 10000,> 75000
C#CC1(F)C(O)[C@@H](COP(=O)(N[C@@H](CC(C)C)C(=O)OCC)N[C@H](CC(C)C)C(=O)OCC)O[C@H]1n1cnc2c(NC3CC3)nc(N)nc21 (stereo partly drawn) [Compound 81],–,–,1000 to 10000,≤ 75000
